Usually IC50 stands for the concentration that gives 50% inhibition.

The experiment has as its system 8×TBD luciferase reporter (YAP) in HEK293T cells. Briefly: YAP Reporter Assay (8×TBD firefly luciferase reporter). The conditions noted are these: Homo sapiens, HEK-293T. It counts as cell-based. Here is the method: HEK293T cells stably transfected with 8×TBD luciferase reporter and pRLTK in 384-well plates were treated with the test compounds, starting from 3 μM (final concentration in assay plate), 1:3 dilution, and 10 points in quadruplicates. Post 24-hr incubation with compounds at 37° C. and 5% CO2, cells were lysed and 8×TBD-driven firefly luciferase and control TK-driven renilla luciferase activities were measured using Promega Dual-Luciferase Reporter Assay System.
Reagents: The reagents used for this study are: DMEM: Invitrogen #11960077, Dual-Glo Luciferase Assay System: Promega-E2980, Puromycin Dihydrochloride: Invitrogen-A1113803, 384-well plate: PerkinElmer-6007480, L-GLUTAMINE: Invitrogen-25030164, Hygromycin B: Invitrogen-10687010, and Penicillin-Streptomycin: Merk-TMS-AB2-C
Media: The media used for this assay were: Culture Medium: DMEM+1 ug/mL puromycin+200 ug/mL hygromycin (with 10% FBS+1 mM L-glutamine); and Assay Medium: DMEM (with 10% FBS+1 mM L-glutamine+1×P/S).
Cell Plating: The appropriate media was warmed at 37° C. by water bath: Culture Medium, Assay Medium, 1*D-PBS, 0.05% trypsin-EDTA. The cells were trypsinized after removing all media, then washed with 1*sterile D-PBS and then with 2 ml 0.05% trypsin-EDTA. The cells were then incubated at RT for one minute. Then 10 ml/75 cm2 flask Assay Medium was added to each flask. Using a 10 ml pipette, the cells were then gently resuspended in the media, until the clumps completely disappeared. The cells were then transferred into 50 ml centrifuge tubes and were centrifuged at 800 rpm for 5 mins. The medium was removed and the cells were resuspended with Assay Medium. An aliquot of cells was used to count the cell density (cells/ml). The cell suspension was then diluted with Assay Medium to a concentration of 6×10^4 cells/ml. 50 ul cells suspension was then plated to 384-well plate (PerkinElmer-6007480), 3×10^3 cells/well and the cells were incubated in an incubator at 37° C., 5% CO2.
Compound Treatment: In the afternoon (incubation of the plate with 3-4 hrs), the test compounds were added by Echo, starting from 3 uM (final concentration in the assay plate), 1:3 dilution, 10 points, quadruplicates. The plate was placed at 37° C., 5% CO2 incubator for 24 hrs.
Detection: The Dual-Glo Luciferase Reagent was prepared by transferring the contents of one bottle of Dual-Glo Luciferase Buffer to one bottle of Dual-Glo Luciferase Substrate to create the Dual-Glo Luciferase Reagent. Mixing was performed by inversion until the substrate was thoroughly dissolved. After mixing, the reagent was aliquoted into 15 ml tubes. In the afternoon (24 hrs post compound treatment), the DMEM+medium in the 384 well plates were aspirated by Microplate Washer.
Measuring firefly luciferase activity: 20 ul Dual-Glo Luciferase Reagent was added to the 384-well plates. The plates were protected from light to prevent interference with the assay. The plates were shaken for 1 min followed centrifuging plates at 1000 rpm for 30 seconds. After waiting at least 10 minutes, the firefly luminescence was measured by Envision.
Measuring renilla luciferase activity: 20 ul Stop-Glo Reagent was added to the 384-well plates. The plates were shaken for 1 min and then centrifuged at 1000 rpm for 30 seconds. After waiting at least 10 minutes, the renilla luminescence was measured by Envision.
Compound IC50 and maximum inhibition on the firefly luciferase and renilla luciferase activities were reported separately.

Setting [1] is: HEK293T cells stably transfected with 8×TBD luciferase reporter and pRLTK, 24-hr incubation, firefly luciferase activity, read-out: Firefly Luciferase IC50.

Read-outs that look alike come from different tables or passages of the source.

As for `C[C@H](NC(=O)c1ccc2c(Oc3ccc(C(F)(F)F)cc3)cccc2c1)c1cccnc1N` [Compound 78, (S)—N-(1-(2-aminopyridin-3-yl)ethyl)-5-(4-(trifluoromethyl)phenoxy)-2-naphthamide], the half-maximal inhibitory concentration (IC50) under setting [1] is < 0.1 µM.
Same read-out and setting: the figure for `O=C(N[C@H](CO)C1CNC1)c1ccc2c(Oc3ccc(C(F)(F)F)cc3)cccc2c1` [Compound 142, (S)—N-(1-(azetidin-3-yl)-2-hydroxyethyl)-5-(4-(trifluoromethyl)phenoxy)-2-naphthamide] is 0.1 to 1 µM; for `CC(C)NC(=O)c1ccc2c(Oc3ccc(C(F)(F)F)cc3)nccc2c1` [Compound 11, N-isopropyl-1-[4-(trifluoromethyl)phenoxy]isoquinoline-6-carboxamide] it is < 0.1 µM.
Consider `C[C@H](NC(=O)c1ccc2c(Oc3ccc(C(F)(F)F)cc3)cccc2c1)c1nnn(C)n1` [Compound 58, (S)—N-(1-(2-methyl-2H-tetrazol-5-yl)ethyl)-5-(4-(trifluoromethyl)phenoxy)-2-naphthamide], for which the IC50 under setting [1] is < 0.1 µM.
As for `CC(C)N1CC([C@H](C)NC(=O)c2ccc3c(Oc4ccc(C(F)(F)F)cc4)cccc3c2)C1` [Compound 132, (S)—N-(1-(1-isopropylazetidin-3-yl)ethyl)-5-(4-(trifluoromethyl)phenoxy)-2-naphthamide], the IC50 under setting [1] lay in the range of 0.1 to 1 µM.
On the same count and under the same terms, the figure for `CC(C)NC(=O)c1cnc2c(Oc3ccc(C(F)(F)F)cc3)cc(F)c(F)c2c1` [Compound 81, 5,6-difluoro-N-isopropyl-8-(4-(trifluoromethyl)phenoxy)quinoline-3-carboxamide] is < 0.1 µM; for `C[C@H](CCN(C)C)NC(=O)c1ccc2c(Oc3ccc(C(F)(F)F)cc3)cccc2c1` [Compound 144, (R)-N-(4-(dimethylamino)butan-2-yl)-5-(4-(trifluoromethyl)phenoxy)-2-naphthamide] it is < 0.1 µM; for `C[C@@H](NC(=O)c1ccc2c(Oc3ccc(C(F)(F)F)cc3)cccc2c1)c1cccc(N)n1` [Compound 66, (R)—N-(1-(6-aminopyridin-2-yl)ethyl)-5-(4-(trifluoromethyl)phenoxy)-2-naphthamide] it is < 0.1 µM.
`CC(C)NC(=O)c1cnc2c(Oc3ccc(C(F)(F)F)cc3)cccc2c1` [Compound 13, N-isopropyl-8-[4-(trifluoromethyl)phenoxy]quinoline-3-carboxamide]: the half-inhibitory concentration (IC50) (24 h, read-out: Firefly Luciferase IC50 (μM)) is < 0.1 µM.
Turning to `C[C@H](NC(=O)c1ccc2c(Oc3ccc(C(F)(F)F)cc3)cccc2c1)C1CNC1` [Compound 95, N-[(1S)-1-(azetidin-3-yl)ethyl]-5-[4-(trifluoromethyl)phenoxy]naphthalene-2-carboxamide], the half-inhibitory concentration (IC50) under setting [1] is < 0.1 µM.
Take `C[C@H](NC(=O)c1ccc2c(Oc3ccc(C(F)(F)F)cc3)cccc2c1)C1(F)CNC1` [Compound 151, (S)-N-(1-(3-fluoroazetidin-3-yl)ethyl)-5-(4-(trifluoromethyl)phenoxy)-2-naphthamide]: the IC50 under setting [1] fell in the range of 1 to 3 µM.
With `C[C@H](NC(=O)c1ccc2c(Oc3ccc(C(F)(F)F)cc3)cccc2c1)c1cn(C)cn1` [Compound 92, N-[(1S)-1-(1-methylimidazol-4-yl)ethyl]-5-[4-(trifluoromethyl)phenoxy]naphthalene-2-carboxamide], under setting [1], the IC50 was 0.1 to 1 µM.
On the same count and under the same terms, the figure for `C[C@H](NC(=O)c1ccc2c(Oc3ccc(C(F)(F)F)cc3)cccc2c1)c1nccn1C` [Compound 69, (S)—N-(1-(1-methyl-1H-imidazol-2-yl)ethyl)-5-(4-(trifluoromethyl)phenoxy)-2-naphthamide] is 0.1 to 1 µM; for `C[C@H](NC(=O)c1ccc2c(Oc3ccc(C(F)(F)F)cc3)cccc2c1)C1CN(C2CC2)C1` [Compound 136, (S)—N-(1-(1-cyclopropylazetidin-3-yl)ethyl)-5-(4-(trifluoromethyl)phenoxy)-2-naphthamide] it is 1 to 3 µM.
Still for that read-out and setting: the figure for `CC(NC(=O)c1ccc2c(Oc3ccc(C(F)(F)F)cc3)cccc2c1)c1cc(Br)ccn1` (stereo not shown) [Compound 75, N-(1-(4-bromopyridin-2-yl)ethyl)-5-(4-(trifluoromethyl)phenoxy)-2-naphthamide] is < 0.1 µM; for `CN(C#N)CCNC(=O)c1ccc2c(Oc3ccc(C(F)(F)F)cc3)cccc2c1` [Compound 31, N-(2-(N-methylcyanamido)ethyl)-5-(4-(trifluoromethyl)phenoxy)-2-naphthamide] it is < 0.1 µM; for `CNCC[C@@H](C)NC(=O)c1ccc2c(Oc3ccc(C(F)(F)F)cc3)cccc2c1` [Compound 145, (R)-N-(4-(methylamino)butan-2-yl)-5-(4-(trifluoromethyl)phenoxy)-2-naphthamide] it is < 0.1 µM.
On the same count and under the same terms, under `C[C@H](CO)NC(=O)c1cc2cccc(Oc3ccc(C(F)(F)F)cc3)c2s1` [Compound 33, (R)—N-(1-hydroxypropan-2-yl)-7-(4-(trifluoromethyl)phenoxy)benzo[b]thiophene-2-carboxamide] stands < 0.1 µM.
Regarding `COc1cc(Oc2ccc(C(F)(F)F)cc2)c2ncc(C(=O)N[C@@H](C)c3ccccn3)cc2c1` [Compound 43, (S)-6-methoxy-N-(1-(pyridin-2-yl)ethyl)-8-(4-(trifluoromethyl)phenoxy)quinoline-3-carboxamide], the IC50 under setting [1] was < 0.1 µM.
On the same count and under the same terms, the figure for `C[C@H](NC(=O)c1ccc2c(Oc3ccc(C(F)(F)F)cc3)cccc2c1)C1(O)CNC1` [Compound 138, (S)—N-(1-(3-hydroxyazetidin-3-yl)ethyl)-5-(4-(trifluoromethyl)phenoxy)-2-naphthamide] is 0.1 to 1 µM; for `CC(C)NC(=O)c1ccc2c(Oc3ccc(C(F)(F)F)cc3)cncc2c1` [Compound 93, N-isopropyl-4-(4-(trifluoromethyl)phenoxy)isoquinoline-7-carboxamide] it is < 0.1 µM.
On the same count and under the same terms, under `C[C@@H](NC(=O)c1ccc2c(Oc3ccc(C(F)(F)F)cc3)cccc2c1)C1CN(CCCCO)C1` [Compound 123, (R)—N-(1-(1-(4-hydroxybutyl)azetidin-3-yl)ethyl)-5-(4-(trifluoromethyl)phenoxy)-2-naphthamide] stands 0.1 to 1 µM; under `CS(=O)(=O)NC(=O)c1ccc2c(Oc3ccc(F)c(F)c3)cccc2c1` [Compound 10, 5-(3,4-difluorophenoxy)-N-(methylsulfonyl)-2-naphthamide], < 0.1 µM; under `C[C@@H](NC(=O)c1ccc2c(Oc3ccc(C(F)(F)F)cc3)cccc2c1)c1cccnc1N` [Compound 79, (R)—N-(1-(2-aminopyridin-3-yl)ethyl)-5-(4-(trifluoromethyl)phenoxy)-2-naphthamide], 1 to 3 µM.
The same measure, in the same setting: the figure for `C[C@H](NC(=O)c1ccc2c(Oc3ccc(C(F)(F)F)cc3)cccc2c1)C1CN(C)C1` [Compound 127, (S)—N-(1-(1-methylazetidin-3-yl)ethyl)-5-(4-(trifluoromethyl)phenoxy)-2-naphthamide] is 1 to 3 µM; for `C[C@@H](NC(=O)c1cnc2c(Oc3ccc(C(F)(F)F)cc3)cccc2c1)c1cccc2nc[nH]c12` [Compound 103, (R)—N-(1-(1H-benzo[d]imidazol-7-yl)ethyl)-8-(4-(trifluoromethyl)phenoxy)quinoline-3-carboxamide] it is 0.1 to 1 µM.
For `C[C@@H](NC(=O)c1ccc2c(Oc3ccc(C(F)(F)F)cc3)cccc2c1)c1nnnn1C` [Compound 56, (R)—N-(1-(1-methyl-1H-tetrazol-5-yl)ethyl)-5-(4-(trifluoromethyl)phenoxy)-2-naphthamide], the half-inhibitory concentration (IC50) under setting [1] lay in the range of 0.1 to 1 µM.
The same measure, in the same setting: under `C[C@H](NC(=O)c1ccc2c(Oc3ccc(C(F)(F)F)cc3)cccc2c1)C1CC1` [Compound 39, (S)—N-(1-cyclopropylethyl)-5-(4-(trifluoromethyl)phenoxy)-2-naphthamide] stands < 0.1 µM.

The record behind these values is US11420935B2, “Bicyclic compounds” (Vivace Therapeutics, Inc., priority 2019, dated 2022).
